# Experimental data from patent US11553718B2, “Mic reduction with lithium ions” (priority 2014, dated 2023).
# Where “and” joins values, the source holds several entries; their conditions need not be identical. Equal values may be shown once. Read-outs that look alike come from different tables or passages of the source.
# Assays:
# bacterial strain rOmyAK = experiment: microbe, parasite or virus in culture; format: cell-based, Pseudomonas mendocina; conditions: for MIC: Thioalkalivibrio paradoxus, read-out: MIC active/aequeous, rOmyAK; for MIC ratio (MICwithout Li/MICLi): rOmyAK
# Method: (§1) When not otherwise indicated, the quoted bacterial counts (values are in cfu/plate) in the Tables here below are determined after 2 days following plate-out and incubation at 30° C. The counting method was as follows. The aqueous preparations were stirred well with a cotton swap (e.g. Applimed SA, No. 1102245); the excess aqueous preparation was removed by dipping it gently to the side of the aqueous preparation container, leaving approximately 200 mg of aqueous preparation on the swap. […] TSA plates were then incubated for 48 h at 30° C. Colony forming units (cfu) were then counted and reported as cfu/plate. Counts from 100 to 999 cfu per plate are reported as ≥100 cfu/plate. Counts of 1000 cfu and above per plate are reported as ≥1000 cfu/plate. Yeast and moulds were counted as described for bacteria with the following exceptions, a) Sabouraud Dextrose Agar (SDA) containing Chloramphenicol (e.g. heipha Dr. Miller GmbH, No. 1460030020) were used instead of TSA, b) SDA plates were incubated at 25° for 5 days and c) cfu were counted and reported after 48 h and 5 days of incubation. Yeast and moulds counts from 20 to 99 cfu per plate are reported as […]. Yeast and moulds counts of 100 cfu and above per plate are reported as >100 cfu/plate.
# (§2) For determining the MIC, the tested microorganism, i.e. the strain of bacteria and/or strain of yeast and/or strain of mould, were freshly grown until the end of the logarithmic growth phase according to the requirements of the individual species to a density of approximately 10^7-10^9 cells/ml.
# (§3) For example, fresh bacteria cultures of the bacteria E. coli, e.g. E. coli ATCC 11229, and S. aureus, e.g. S. aureus strains DSMZ 346, were prepared by inoculation of 3 ml liquid growth media (tryptic soy broth, e.g. Fluka Cat. No. 22092) from a stock culture and incubation for 16 to 20 h at 30° C. with agitation at 150 rotations per minutes (rpm) leading to a cell density of approximately 2×10^8 cells/ml. Fresh cultures of resistant bacteria, adapted to the conditions in biocide containing CaCO3 slurries, were prepared by inoculation of 50 g 75 wt.-% solid content CaCO3 slurry from a stock culture and incubated for 14 to 28 days at 30° C. without agitation.
# (§4) Lithium ions were added to the aqueous preparation (e.g. CaCO3 slurry) by the addition of a water soluble lithium salt. For example to 50 g CaCO3 slurry with a solid content of 75% (w/w) 1.177 ml of a 74 g/Li2CO3 suspension was added and mixed well leading to a lithium ion concentration of 172 mM or 1205 ppm in the water phase. As another example to 50 g CaCO3 slurry with a solid content of 75 wt.-% (w/w) 0.04 ml of a 292 g/L Li3Citrate (2M) solution was added and mixed well leading to a lithium ion concentration of 19 mM or 135 ppm in the water phase.
# (§5) The biocide to be tested was added to the aqueous preparation (e.g. CaCO3 slurry with or without lithium ions) in increasing concentrations starting from 0 ppm (without biocide). The concentrations ranged from concentrations higher than recommended by the supplier, to very low amounts (as low as 1 ppm or lower). Of each biocide concentration a 3 ml sample of aqueous preparation was combined with 20 μl fresh bacterial culture.
# (§6) All samples were incubated at 30° C. for 24 h. After incubation colony forming units (cfu) per plate (cfu/plate) were determined as described above under bacterial count.
# (§7) The MIC for bacteria is defined as the lowest concentration of biocide in the presence or absence of lithium ion amongst all samples tested, where the bacterial concentration dropped below 100 cfu/plate. The MIC for yeast and mould is defined as the lowest concentration of biocide in the presence or absence of lithium ion amongst all samples tested, where the microbial concentration dropped below 20 cfu/plate.
# rOPP strain = experiment: MIC determination in CaCO3 slurry with or without lithium ions; format: cell-based, Pseudomonas mendocina; conditions: Li2CO3; for MIC: Ectopseudomonas mendocina, read-out: MIC active/aequeous, rOPP; for MIC ratio (MICwithout Li/MICLi): rOPP
# Method: as §1, §2, §3, §4, §5, §6, §7
# E. coli strain ATCC11229 = experiment: MIC determination / bacterial count in CaCO3 slurry with or without lithium ions; format: cell-based; conditions: for MIC ratio (MICwithout Li/MICLi): E. coli; for MIC: Escherichia coli; for bacterial count: E. coli ATCC11229, 88.5 ppm 4-chloro-3-methylphenol
# Method: as §1, §2, §3, §4, §5, §6, §7
# [1] = tested on: S. aureus strain DSMZ 346; experiment: as above; format: cell-based; conditions: for MIC: Staphylococcus aureus, DSMZ346, S. aureus, read-out: MIC active/aequeous
# Method: as §1, §2, §3, §4, §5, §6, §7
# S. aureus = experiment: Curative MIC (bacteria added before biocide and lithium); format: cell-based; conditions: Curative treatment, Li^+ 329 mM (2305 ppm), Li2CO3
# [2] = ATCC11229, read-out: MIC active/aequeous, E. coli, Li^+ 197 mM (1380 ppm), Li2CO3
# [3] = ATCC11229, read-out: MIC active/aequeous, E. coli, no Li^+
# [4] = ATCC11229, read-out: MIC active/aequeous, E. coli, Li^+ 329 mM (2305 ppm), Li2CO3
# [5] = S. aureus, Li^+ 423 mM (2964 ppm), Li2CO3
compound,measurement,setting,value
"OC1OCCOC1O (stereo not shown) [1,6-Dihydroxy-2,5-dioxane]",MIC,"bacterial strain rOmyAK; Li^+ 197 mM (1380 ppm), Li2CO3",8700 µM and 1060 µg/mL
same,MIC,"bacterial strain rOmyAK; Li^+ 423 mM (2964 ppm), Li2CO3",5800 µM and 708 µg/mL
same,MIC,bacterial strain rOmyAK; no Li^+,3100 µM and > 1590 µg/mL
same,MIC ratio (MICwithout Li/MICLi),"bacterial strain rOmyAK; Li^+ 197 mM (1380 ppm), Li2CO3",>1.5
same,MIC ratio (MICwithout Li/MICLi),"bacterial strain rOmyAK; Li^+ 423 mM (2964 ppm), Li2CO3",>2.25
"Oc1ccccc1-c1ccccc1 [2-Phenylphenol (OPP), 2-Phenylphenol]",MIC,rOPP strain; Li^+ 172 mM (1205 ppm),260 µM and 45 µg/mL
same,MIC,rOPP strain; Li^+ 197 mM (1380 ppm),2080 µM and 354 µg/mL
same,MIC,rOPP strain; Li^+ 329 mM (2305 ppm),1040 µM and 177 µg/mL
same,MIC ratio (MICwithout Li/MICLi),rOPP strain; Li^+ 172 mM (1205 ppm),2
same,MIC ratio (MICwithout Li/MICLi),rOPP strain; Li^+ 197 mM (1380 ppm),>4.5
same,MIC ratio (MICwithout Li/MICLi),rOPP strain; Li^+ 329 mM (2305 ppm),>9
same,MIC ratio (MICwithout Li/MICLi),"E. coli strain ATCC11229; Li^+ 197 mM (1380 ppm), Li2CO3",1.5
same,MIC,E. coli strain ATCC11229; [2],2080 µM and 354 µg/mL
same,MIC,E. coli strain ATCC11229; [3],3120 µM and 531 µg/mL
same,MIC ratio (MICwithout Li/MICLi),"[1]; S. aureus, Li^+ 53 mM (370 ppm), Li2CO3",2
same,MIC ratio (MICwithout Li/MICLi),"[1]; S. aureus, Li^+ 67 mM (470 ppm), LiOH",10
same,MIC,"[1]; Li^+ 53 mM (370 ppm), Li2CO3",880 µM and 150 µg/mL
same,MIC,"[1]; Li^+ 67 mM (470 ppm), LiOH",180 µM and 30 µg/mL
same,MIC,[1]; no Li^+,1760 µM and 300 µg/mL
"CN1CSC(=S)N(C)C1 [3.5-Dimethyltetrahydro-1,3,5-thiadiazine-2-]",MIC ratio (MICwithout Li/MICLi),"E. coli strain ATCC11229; Li^+ 329 mM (2305 ppm), Li2CO3",1.25
same,MIC,E. coli strain ATCC11229; [4],870 µM and 142 µg/mL
same,MIC,E. coli strain ATCC11229; [3],1090 µM and 177 µg/mL
same,MIC ratio (MICwithout Li/MICLi),[1]; [5],>2.5
same,MIC,"[1]; Li^+ 423 mM (2964 ppm), Li2CO3",440 µM and 70.8 µg/mL
same,MIC,[1]; no Li^+,> 1090 µM and > 177 µg/mL
Cc1cc(O)ccc1Cl [4-Chloro-3-methylphenol],bacterial count,E. coli strain ATCC11229; 197 mM Li^+,≥100 cfu/plate
same,bacterial count,E. coli strain ATCC11229; no Li^+,≥1000 cfu/plate
same,MIC ratio (MICwithout Li/MICLi),"E. coli strain ATCC11229; Li^+ 197 mM (1380 ppm), Li2CO3",2
same,MIC ratio (MICwithout Li/MICLi),"E. coli strain ATCC11229; Li^+ 329 mM (2305 ppm), Li2CO3",4
same,MIC,E. coli strain ATCC11229; [2],177 µg/mL and 1240 µM
same,MIC,E. coli strain ATCC11229; [4],620 µM and 88.5 µg/mL
same,MIC,E. coli strain ATCC11229; [3],354 µg/mL and 2480 µM
same,MIC ratio (MICwithout Li/MICLi),[1]; [5],1.5
same,MIC,"[1]; Li^+ 423 mM (2964 ppm), Li2CO3",2480 µM and 354 µg/mL
same,MIC,[1]; no Li^+,3720 µM and 531 µg/mL
"O=c1[nH]sc2ccccc12 [Benzisothiazolinone (BIT), Benzisothiazolinone]",MIC ratio (MICwithout Li/MICLi),S. aureus,2
same,MIC ratio (MICwithout Li/MICLi),[1]; [5],>2
O=[N+]([O-])C(Br)(CO)CO [Bronopol],MIC ratio (MICwithout Li/MICLi),"E. coli strain ATCC11229; Li^+ 172 mM (1205 ppm), Li2CO3",>3.75
same,MIC ratio (MICwithout Li/MICLi),"E. coli strain ATCC11229; Li^+ 197 mM (1380 ppm), Li2CO3",3
same,MIC,"E. coli strain ATCC11229; ATCC11229, E. coli, Li^+ 172 mM (1205 ppm), Li2CO3, read-out: MIC active/aequeous",120 µM and 24 µg/mL
same,MIC,"E. coli strain ATCC11229; ATCC11229, E. coli, Li^+ 197 mM (1380 ppm), Li2CO3, read-out: MIC active/aequeous",180 µM and 35.4 µg/mL
same,MIC,"E. coli strain ATCC11229; ATCC11229, E. coli, no Li^+, read-out: MIC active/aequeous",530 µM and 106 µg/mL
same,MIC ratio (MICwithout Li/MICLi),"[1]; S. aureus, Li^+ 172 mM (1205 ppm), Li2CO3",6
same,MIC ratio (MICwithout Li/MICLi),"[1]; S. aureus, Li^+ 197 mM (1380 ppm), Li2CO3",2
same,MIC ratio (MICwithout Li/MICLi),"[1]; S. aureus, Li^+ 329 mM (2305 ppm), Li2CO3",6
same,MIC ratio (MICwithout Li/MICLi),[1]; [5],20
same,MIC,"[1]; Li^+ 172 mM (1205 ppm), Li2CO3",150 µM and 30 µg/mL
same,MIC,"[1]; Li^+ 197 mM (1380 ppm), Li2CO3",450 µM and 90 µg/mL
same,MIC,"[1]; Li^+ 329 mM (2305 ppm), Li2CO3",150 µM and 30 µg/mL
same,MIC,"[1]; Li^+ 423 mM (2964 ppm), Li2CO3",50 µM and 9 µg/mL
same,MIC,[1]; no Li^+,900 µM and 180 µg/mL
C=O [Formaldehyde],MIC,"bacterial strain rOmyAK; Li^+ 197 mM (1380 ppm), Li2CO3",11800 µM and 354 µg/mL
same,MIC,bacterial strain rOmyAK; no Li^+,> 35400 µM and > 1060 µg/mL
same,MIC ratio (MICwithout Li/MICLi),"bacterial strain rOmyAK; Li^+ 197 mM (1380 ppm), Li2CO3",>3
same,MIC ratio (MICwithout Li/MICLi),"E. coli strain ATCC11229; Li^+ 197 mM (1380 ppm), Li2CO3",>2
same,MIC,E. coli strain ATCC11229; [2],590 µM and 17.7 µg/mL
same,MIC,E. coli strain ATCC11229; [3],> 1180 µM and > 35.4 µg/mL
same,MIC ratio (MICwithout Li/MICLi),[1],>10
